Where “and” joins values, the source holds several entries; their conditions need not be identical. Equal values may be shown once.
Legend:
Akt activation by EGFR = assay: Western blot of EGFR-mediated Akt activation; format: cell-based, human; conditions: for AKT activation, EGFR (p-Akt over Akt): individual experiments
Experimental: HEK293SL cells (10^5 cells per well) were seeded in a poly-L-lysine-coated six-well plate and transiently transfected with 3 μg Flag-AT1R, HA-B2R or HA-β2AR and/or 500 ng Flag-MEK1-WT, Flag-MEK1-DD, Flag-BRAF-WT, Flag-BRAF-V600E, Flag-K-Ras-WT, Flag-K-Ras-G12V, HA-ARF6-WT, or HA-ARF6-T27N. Gαq/11 KO and βarr1/2 KO cells were seeded onto 100 mm dishes at a density of 10^6 cells per dish. Next day, cells were transfected with 3 μg AT1R alone or along with 500 ng of β-arrestin2 using PEI. After 18 h of transfection, cells were detached and re-seeded onto poly-L-lysine coated 12-well plates (~1.5–2 × 10^5cells/well) for subsequent experiments. Forty-eight hours post transfection, in a 37 °C water bath, cells were serum-starved for 30 min, pretreated with DMSO (0.1%) or compound 21/Rasarfin (50 µM or at indicated concentrations) for 30 min, then stimulated or not with the indicated ligand [AngII (1 µM), BK (1 µM), Iso (10 µM) or EGF (100 ng/ml)] at indicated times. Cells were put on ice, washed with PBS and solubilized in 2x laemmli buffer (250 mM Tris–HCl pH 6.8, 2% SDS (w/v), 10% glycerol (v/v), 0.01% bromophenol blue (w/v) and 5% β-mercaptoethanol (v/v)) by heating at 65 °C for 15 min. Lysates were resolved on 10 or 14% SDS-PAGE, transferred to nitrocellulose membranes and immunoblotted for p-ERK1/2, ERK1/2, p-Akt, Akt, HA, Myc, β-actin or FLAG. ImageLab 5.2 software was used to quantify the digital blots as fold of the phosphorylated protein over total protein, which were then normalized as indicated in the figure legends. Uncropped immunoblots are provided in the Source Data file.

AT1R = assay: Confocal microscopy of YFP-tagged AT1R internalization; format: cell-based, human; conditions: 50 μM; AngII
Experimental: One day before transfection, cells were seeded in 35-mm glass-bottom dishes (MatTek Corporation) at a density of 1 × 10^5 cells per dish. For the recordings of receptor internalization, HEK293 SL cells were transfected with 2 μg of AT1R-YFP. For the recordings of β-arrestin-2 recruitment to the receptor, HEK293SL cells were transfected with 50 ng of β-arrestin2-YFP and 250 ng of Flag-AT1R or HA-B2R. Forty-eight hours post-transfection, cells were serum starved, preincubated with DMSO (0.1% final concentration) or Rasarfin (50 μM) for 30 min at 37 °C. AT1R-expressing cells were stimulated with angiotensinII (AngII; 100 nM) and B2R-expressing cells were stimulated with bradykinin (BK; 1 μM) for 30 min (receptor-YFP) or 15 min (β-arrestin2-YFP). Cells were imaged with Zeiss LSM-510 and/or LSM-710 laser scanning confocal microscope. To detect YFP, […] and BP 505–550 nm emission filter. Images (2048 × 2048) were collected using a 63x oil immersion lens.

With `CC(C)C(=O)N1CCN(c2ccc(NC(=O)c3cc4ccccc4o3)cc2Cl)CC1` [Compound 21] the IC50 (Akt activation by EGFR; Homo sapiens, read-out: potency for inhibition of EGFR-mediated Akt (western blot)) was 4 to 5 µM, the “AKT activation, EGFR (p-Akt over Akt)” value (Akt activation by EGFR; Log [Comp 21] (M) -4.3) was 12.9009 percent compared to DMSO and 28.9803 percent compared to DMSO and 32.6041 percent compared to DMSO and the “AKT activation, EGFR (p-Akt over Akt)” value (Akt activation by EGFR; Log [Comp 21] (M) -5) was 21.4684 percent compared to DMSO and 57.877 percent compared to DMSO and 33.8957 percent compared to DMSO. For the same molecule, the “AKT activation, EGFR (p-Akt over Akt)” value (Akt activation by EGFR; Log [Comp 21] (M) -5.3) was 42.6879 percent compared to DMSO and 80.2621 percent compared to DMSO and 48.2006 percent compared to DMSO, the “AKT activation, EGFR (p-Akt over Akt)” value (Akt activation by EGFR; Log [Comp 21] (M) -6) was 93.9059 percent compared to DMSO and 99.6926 percent compared to DMSO and 89.9021 percent compared to DMSO and the “AKT activation, EGFR (p-Akt over Akt)” value (Akt activation by EGFR; Log [Comp 21] (M) -6.3) was 94.5153 percent compared to DMSO and 100.709 percent compared to DMSO and 97.0491 percent compared to DMSO. For the same molecule, the “AKT activation, EGFR (p-Akt over Akt)” value (Akt activation by EGFR; Log [Comp 21] (M) -7) was 104.373 percent compared to DMSO and 93.1512 percent compared to DMSO and 83.461 percent compared to DMSO and the “AT1R localization by microscopy” value (AT1R) was “remained trapped at the PM”.
